Measured values reported in PubChem BioAssay (NCI).
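Test compounds were applied to cells in 96-well plates for 48 hours at 5 doses. TGI marks complete inhibition of growth.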

Experiments:
Assay in all cases: DTP human tumour cell line panel, 48 h
IGROV1 ovarian = tested on: IGROV1 ovarian
DU-145 prostate = tested on: DU-145 prostate
LOX IMVI melanoma = tested on: LOX IMVI melanoma
COLO 205 colon = tested on: COLO 205 colon
MALME-3M melanoma = tested on: MALME-3M melanoma
OVCAR-8 ovarian = tested on: OVCAR-8 ovarian
NCI-H522 lung = tested on: NCI-H522 lung
OVCAR-5 ovarian = tested on: OVCAR-5 ovarian
SNB-19 CNS = tested on: SNB-19 CNS
786-0 renal = tested on: 786-0 renal
HOP-92 NSCLC = tested on: HOP-92 NSCLC
RPMI-8226 leukemia = tested on: RPMI-8226 leukemia
SN12C renal = tested on: SN12C renal
UACC-62 melanoma = tested on: UACC-62 melanoma
MCF7 breast = tested on: MCF7 breast
HOP-18 NSCLC = tested on: HOP-18 NSCLC
UACC-257 melanoma = tested on: UACC-257 melanoma
K-562 leukemia = tested on: K-562 leukemia
LXFL 529 NSCLC = tested on: LXFL 529 NSCLC
SNB-75 CNS = tested on: SNB-75 CNS
SNB-78 CNS = tested on: SNB-78 CNS
SR leukemia = tested on: SR leukemia
HCT-15 colon = tested on: HCT-15 colon
SW-620 colon = tested on: SW-620 colon
HT29 colon = tested on: HT29 colon
SK-MEL-28 melanoma = tested on: SK-MEL-28 melanoma
DMS 273 small cell lung = tested on: DMS 273 small cell lung
M14 melanoma = tested on: M14 melanoma
M19-MEL melanoma = tested on: M19-MEL melanoma
OVCAR-4 ovarian = tested on: OVCAR-4 ovarian
NCI-H23 lung = tested on: NCI-H23 lung
MDA-MB-435 = tested on: MDA-MB-435
HOP-62 NSCLC = tested on: HOP-62 NSCLC
A498 renal = tested on: A498 renal
SF-295 CNS = tested on: SF-295 CNS
HCT-116 colon = tested on: HCT-116 colon
HCC-2998 colon = tested on: HCC-2998 colon
KM20L2 colon = tested on: KM20L2 colon
A549 NSCLC = tested on: A549 NSCLC
KM12 colon = tested on: KM12 colon
MOLT-4 leukemia = tested on: MOLT-4 leukemia
BT-549 breast = tested on: BT-549 breast
HL-60(TB) leukemia = tested on: HL-60(TB) leukemia
PC-3 prostate = tested on: PC-3 prostate
MDA-N = tested on: MDA-N
T-47D breast = tested on: T-47D breast
CCRF-CEM leukemia = tested on: CCRF-CEM leukemia
SF-268 CNS = tested on: SF-268 CNS
DMS 114 small cell lung = tested on: DMS 114 small cell lung
ACHN renal = tested on: ACHN renal
SK-MEL-5 melanoma = tested on: SK-MEL-5 melanoma
U251 CNS = tested on: U251 CNS
RXF-631 renal = tested on: RXF-631 renal
UO-31 renal = tested on: UO-31 renal
EKVX NSCLC = tested on: EKVX NSCLC
NCI-H460 lung = tested on: NCI-H460 lung
NCI-H226 lung = tested on: NCI-H226 lung
CAKI-1 renal = tested on: CAKI-1 renal
SK-OV-3 ovarian = tested on: SK-OV-3 ovarian
DLD-1 colon = tested on: DLD-1 colon
SF-539 CNS = tested on: SF-539 CNS
TK-10 renal = tested on: TK-10 renal
OVCAR-3 ovarian = tested on: OVCAR-3 ovarian
MDA-MB-231 breast = tested on: MDA-MB-231 breast
XF 498 CNS = tested on: XF 498 CNS
HS 578T breast = tested on: HS 578T breast
SK-MEL-2 melanoma = tested on: SK-MEL-2 melanoma
NCI/ADR-RES ovarian = tested on: NCI/ADR-RES ovarian
RXF 393 renal = tested on: RXF 393 renal

CCCC(=O)N[C@H]1CCc2cc(OC)c(OC)c(OC)c2-c2ccc(SC)c(=O)cc21
TGI (IGROV1 ovarian): > 100 µM | TGI (DU-145 prostate): < 0.01 µM | TGI (LOX IMVI melanoma): > 100 µM | TGI (COLO 205 colon): < 0.01 µM | TGI (MALME-3M melanoma): > 100 µM | TGI (OVCAR-8 ovarian): > 15.8 µM | TGI (NCI-H522 lung): < 0.01 µM | TGI (OVCAR-5 ovarian): > 100 µM | TGI (SNB-19 CNS): > 94.6 µM | TGI (786-0 renal): 63.1 µM | TGI (HOP-92 NSCLC): 2.51 µM | TGI (RPMI-8226 leukemia): > 100 µM | TGI (SN12C renal): > 91.8 µM | TGI (UACC-62 melanoma): > 100 µM | TGI (MCF7 breast): > 100 µM | TGI (HOP-18 NSCLC): > 100 µM | TGI (UACC-257 melanoma): > 74.1 µM | TGI (K-562 leukemia): > 100 µM | TGI (LXFL 529 NSCLC): > 100 µM | TGI (SNB-75 CNS): 15.6 µM | TGI (SNB-78 CNS): > 100 µM | TGI (SR leukemia): > 100 µM | TGI (HCT-15 colon): > 100 µM | TGI (SW-620 colon): > 100 µM | TGI (HT29 colon): 0.724 µM | TGI (SK-MEL-28 melanoma): > 100 µM | TGI (DMS 273 small cell lung): > 100 µM | TGI (M14 melanoma): 34.7 µM | TGI (M19-MEL melanoma): > 100 µM | TGI (OVCAR-4 ovarian): > 100 µM | TGI (NCI-H23 lung): 2.18 µM | TGI (MDA-MB-435): < 0.01 µM | TGI (HOP-62 NSCLC): > 91.2 µM | TGI (A498 renal): 0.39 µM | TGI (SF-295 CNS): < 0.01 µM | TGI (HCT-116 colon): 0.176 µM | TGI (HCC-2998 colon): > 4.64 µM | TGI (KM20L2 colon): < 0.01 µM | TGI (A549 NSCLC): > 100 µM | TGI (KM12 colon): < 0.01 µM | TGI (MOLT-4 leukemia): > 66.2 µM | TGI (BT-549 breast): < 0.01 µM | TGI (HL-60(TB) leukemia): < 0.01 µM | TGI (PC-3 prostate): > 100 µM | TGI (MDA-N): < 0.01 µM | TGI (T-47D breast): > 100 µM | TGI (CCRF-CEM leukemia): > 100 µM | TGI (SF-268 CNS): 62.7 µM | TGI (DMS 114 small cell lung): < 0.01 µM | TGI (ACHN renal): > 57.1 µM | TGI (SK-MEL-5 melanoma): < 0.0989 µM | TGI (U251 CNS): 3.74 µM | TGI (RXF-631 renal): 1.42 µM | TGI (UO-31 renal): > 100 µM | TGI (EKVX NSCLC): > 100 µM | TGI (NCI-H460 lung): 0.0522 µM | TGI (NCI-H226 lung): 0.215 µM | TGI (CAKI-1 renal): 14.1 µM | TGI (SK-OV-3 ovarian): 5.75 µM | TGI (DLD-1 colon): > 100 µM | TGI (SF-539 CNS): < 0.01 µM | TGI (TK-10 renal): 99.9 µM | TGI (OVCAR-3 ovarian): < 0.0423 µM

C/C(=N\NC(=S)N1CCC(N2CCCCC2)CC1)c1ccccn1
TGI (IGROV1 ovarian): 12.3 µM | TGI (DU-145 prostate): 11.2 µM | TGI (LOX IMVI melanoma): 8.28 µM | TGI (COLO 205 colon): 9.95 µM | TGI (MALME-3M melanoma): > 100 µM | TGI (OVCAR-8 ovarian): 11.7 µM | TGI (NCI-H522 lung): 0.646 µM | TGI (OVCAR-5 ovarian): 10.2 µM | TGI (SNB-19 CNS): 11.3 µM | TGI (HOP-92 NSCLC): 9.79 µM | TGI (RPMI-8226 leukemia): > 29.4 µM | TGI (SN12C renal): 8.17 µM | TGI (UACC-62 melanoma): 10.7 µM | TGI (MCF7 breast): 10.6 µM | TGI (HOP-18 NSCLC): 14.5 µM | TGI (UACC-257 melanoma): 8.93 µM | TGI (MDA-MB-231 breast): 3.57 µM | TGI (K-562 leukemia): > 100 µM | TGI (LXFL 529 NSCLC): 13.6 µM | TGI (SNB-75 CNS): 11.2 µM | TGI (SNB-78 CNS): 27.5 µM | TGI (XF 498 CNS): 19.6 µM | TGI (SR leukemia): 9.74 µM | TGI (HCT-15 colon): 6.13 µM | TGI (SW-620 colon): 12.2 µM | TGI (HT29 colon): 9.88 µM | TGI (SK-MEL-28 melanoma): 13.7 µM | TGI (DMS 273 small cell lung): 9.43 µM | TGI (M14 melanoma): 3.8 µM | TGI (M19-MEL melanoma): 12.6 µM | TGI (OVCAR-4 ovarian): 16.7 µM | TGI (NCI-H23 lung): 12 µM | TGI (MDA-MB-435): 6 µM | TGI (HOP-62 NSCLC): > 19.8 µM | TGI (A498 renal): 5.21 µM | TGI (SF-295 CNS): 7.12 µM | TGI (HCT-116 colon): 7.02 µM | TGI (HCC-2998 colon): > 24.3 µM | TGI (KM20L2 colon): 14.2 µM | TGI (A549 NSCLC): 10.3 µM | TGI (KM12 colon): 9.53 µM | TGI (HS 578T breast): 31.7 µM | TGI (MOLT-4 leukemia): > 21 µM | TGI (HL-60(TB) leukemia): > 21 µM | TGI (PC-3 prostate): 10.3 µM | TGI (MDA-N): 5.9 µM | TGI (T-47D breast): 7.01 µM | TGI (CCRF-CEM leukemia): 34.3 µM | TGI (SF-268 CNS): 12.9 µM | TGI (DMS 114 small cell lung): 8.86 µM | TGI (ACHN renal): 5.65 µM | TGI (SK-MEL-5 melanoma): 8.22 µM | TGI (U251 CNS): 9.86 µM | TGI (SK-MEL-2 melanoma): > 100 µM | TGI (NCI/ADR-RES ovarian): 5.67 µM | TGI (UO-31 renal): 3.3 µM | TGI (EKVX NSCLC): 12.1 µM | TGI (NCI-H460 lung): 7.23 µM | TGI (CAKI-1 renal): 5.87 µM | TGI (SK-OV-3 ovarian): 11.6 µM | TGI (DLD-1 colon): > 100 µM | TGI (RXF 393 renal): 2.29 µM | TGI (SF-539 CNS): 8.36 µM | TGI (TK-10 renal): 6.29 µM | TGI (OVCAR-3 ovarian): 13.4 µM

CC1CC2(S(=O)(=O)c3ccccc3)ON1CC2S(=O)(=O)c1ccccc1 (configuration not stated)
TGI (IGROV1 ovarian): > 100 µM | TGI (LOX IMVI melanoma): > 100 µM | TGI (COLO 205 colon): > 100 µM | TGI (MALME-3M melanoma): > 100 µM | TGI (OVCAR-8 ovarian): > 100 µM | TGI (NCI-H522 lung): > 100 µM | TGI (OVCAR-5 ovarian): > 100 µM | TGI (SNB-19 CNS): > 100 µM | TGI (786-0 renal): > 100 µM | TGI (RPMI-8226 leukemia): > 100 µM | TGI (SN12C renal): > 100 µM | TGI (UACC-62 melanoma): > 100 µM | TGI (UACC-257 melanoma): > 100 µM | TGI (K-562 leukemia): > 100 µM | TGI (LXFL 529 NSCLC): > 100 µM | TGI (SNB-75 CNS): > 100 µM | TGI (XF 498 CNS): > 100 µM | TGI (SR leukemia): > 100 µM | TGI (HCT-15 colon): > 100 µM | TGI (SW-620 colon): > 100 µM | TGI (HT29 colon): > 100 µM | TGI (SK-MEL-28 melanoma): > 100 µM | TGI (DMS 273 small cell lung): > 100 µM | TGI (M14 melanoma): > 100 µM | TGI (M19-MEL melanoma): > 100 µM | TGI (OVCAR-4 ovarian): > 100 µM | TGI (NCI-H23 lung): > 100 µM | TGI (HOP-62 NSCLC): > 100 µM | TGI (SF-295 CNS): > 100 µM | TGI (HCT-116 colon): > 100 µM | TGI (HCC-2998 colon): > 100 µM | TGI (KM20L2 colon): > 100 µM | TGI (A549 NSCLC): > 100 µM | TGI (KM12 colon): > 100 µM | TGI (MOLT-4 leukemia): > 100 µM | TGI (HL-60(TB) leukemia): > 100 µM | TGI (CCRF-CEM leukemia): > 100 µM | TGI (SF-268 CNS): > 100 µM | TGI (DMS 114 small cell lung): > 100 µM | TGI (ACHN renal): > 100 µM | TGI (U251 CNS): > 100 µM | TGI (SK-MEL-2 melanoma): > 100 µM | TGI (RXF-631 renal): > 100 µM | TGI (UO-31 renal): > 100 µM | TGI (EKVX NSCLC): > 100 µM | TGI (NCI-H460 lung): > 100 µM | TGI (NCI-H226 lung): > 100 µM | TGI (CAKI-1 renal): > 100 µM | TGI (SK-OV-3 ovarian): > 100 µM | TGI (DLD-1 colon): > 100 µM | TGI (RXF 393 renal): > 100 µM | TGI (SF-539 CNS): > 100 µM | TGI (TK-10 renal): > 100 µM | TGI (OVCAR-3 ovarian): > 100 µM
